Test results: patent publication EP4335840A1, “NEW CONTRAST AGENTS FOR USE IN DIAGNOSTIC IMAGING” (priority 2022, dated 2024)

Experiments:
OATP1B3 [1] = biological target: T1, OATP1B3 (Homo sapiens, UniProt Q9NPD5); assay: Uptake into stable transfected OATP1B3 HEK 293 cells; type: cell-based; conditions: OATP1B3-HEK 293 cell uptake with Rifampicine
T1 sequence (Q9NPD5 1-702): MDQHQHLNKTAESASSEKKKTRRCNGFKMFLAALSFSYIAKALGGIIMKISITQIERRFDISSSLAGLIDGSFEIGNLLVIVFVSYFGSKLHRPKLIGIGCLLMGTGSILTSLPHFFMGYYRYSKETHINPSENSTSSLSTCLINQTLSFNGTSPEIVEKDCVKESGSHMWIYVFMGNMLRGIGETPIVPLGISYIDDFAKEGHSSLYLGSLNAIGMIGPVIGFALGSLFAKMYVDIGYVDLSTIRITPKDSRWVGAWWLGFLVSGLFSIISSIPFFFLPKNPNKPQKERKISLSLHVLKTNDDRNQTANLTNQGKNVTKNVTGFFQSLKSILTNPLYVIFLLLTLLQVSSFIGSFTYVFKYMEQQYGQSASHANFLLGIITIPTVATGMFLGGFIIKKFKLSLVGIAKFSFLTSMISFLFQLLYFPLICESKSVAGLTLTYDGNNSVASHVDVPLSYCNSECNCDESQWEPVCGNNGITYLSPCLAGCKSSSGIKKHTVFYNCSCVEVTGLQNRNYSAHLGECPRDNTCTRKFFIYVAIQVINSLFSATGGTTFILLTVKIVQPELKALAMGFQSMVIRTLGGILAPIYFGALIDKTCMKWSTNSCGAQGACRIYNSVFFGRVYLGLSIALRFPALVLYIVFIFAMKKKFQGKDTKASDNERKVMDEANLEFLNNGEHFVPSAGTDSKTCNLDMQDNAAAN

[2] = Relaxivity measurements at 1.41 T in water and human plasma; type: physicochemical; conditions: 37°C, normalized to Gd
Experimental: Relaxivity measurements at 1.41 T were performed using a MiniSpec mq60 spectrometer (Bruker Analytik, Karlsruhe, Germany) operating at a resonance frequency of 60 MHz and a temperature of 37°C. The T1 relaxation times were determined using the standard inversion recovery (IR) method with a fixed relaxation delay of at least 5 × T1. The variable inversion time (TI) was calculated automatically by the standard software of the MiniSpec mq60 (8 steps). The T2 measurements were performed by using a Carr-Purcell-Meiboom-Gill (CPMG) pulse sequence, applying a relaxation delay of at least 5 × T1.
Each relaxivity measurement was performed using three different Gd concentrations (3 concentrations between 0.05 and 2 mM). The T1 and T2 relaxation times of the example compounds 1 to 10 were measured in different media for example in water and human plasma. Human plasma preparation: For each experiment fresh blood was taken from a volunteer using 10 mL citrate-tubes (Sarstedt S-Monovette 02.1067.001, 10 mL, Citrate). The 10 mL citrate-tubes were carefully inverted 10 times to mix blood and anticoagulant and centrifuged for 15min at 1811 g at RT (Eppendorf, Centrifuge 5810R).
The relaxivities ri (where i=1, 2) were calculated based on the measured relaxation rates Ri in water and plasma: ri = (Ri−Ri(0))/CGd [formula] where Ri(0) represent the relaxation rate of the respective solvent and CGd the concentration of the compound normalized to the Gadolinium. The Gadolinium concentrations of the investigated solutions were verified by Inductively Coupled Plasma Mass Spectrometry (ICP-MS Agilent 7500a, Waldbronn, Germany). Table 3: Relaxivities of investigated compounds in water and human plasma at 1.41 T and relaxivities of Reference compounds 1-3 (RC1-RC3) at 1.5 T in water and bovine plasma. All values are measured at 37°C and normalized to Gd and given in L mmol-1 s-1.

OATP1B3 [3] = biological target: T1, OATP1B3; assay: Uptake into stable transfected OATP1B3 HEK 293 cells; type: cell-based; conditions: 100 µM, 40 min, relative to RC1 (Gd-EOB-DTPA)
Experimental: Human transfected OATP1B3 human embryonic kidney 293 cells (OATP1B3 HEK 293, SLCO1B3, Entrez Gene ID: 28234) were used (Leonhardt M et al. Drug Metab Dispos. 2010 Jul;38(7):1024-8). The following culture medium was used: 500 mL DMEM (Dulbecco's Modified Eagle Medium - high Glucose, D6429), 50 mL FCS (fetal bovine serum, Fa. Sigma, F7524), 5.8 mL G418 (Geneticin, Fa. Gibco 10131-027) and 5 mL Pen-Strep. (Penicillin-Streptomycin, Fa. Gibco, Ref 15140-122). Cryopreserved cells were shortly thawed in water bath and diluted in 10 mL warm culture medium (37°C). After medium change the cells were grown for 3d in a 25 cm^2 cell culture flask. After 3 to 5d the cells were transferred into 75 cm^2 flasks. For the splitting of cells these were incubated with 1.5 mL trypsin (Trypsin-EDTA (1x) 0,05%, Ref 25300-054 100ml, Fa. Gibco) for 3-5 min in the incubator (37°C, 5% CO2 and […]). After centrifugation and washing with medium the cells were counted (50 µL cell suspension and 50 µL trypan blue (Trypan Blue Solution, 93595-50ml, Fa. Fluka). Cells were cultured (1×10^5 cells/well) in poly-D-lysine coated 24-well plates (Fa. Corning, Ref: 354414) in 1.5 mL medium per well. After 48 hours in the incubator the medium was changed and 1.5 mL/well sodium butyrate containing medium were added (40 mL culture medium plus 400 µL Na-Butyrate, Fa. Sigma Aldrich B5887-5G, 250 mg in 2.27 mL MilliQ water). After 24 hours in the incubator the medium was vacuumed off and 1.5 mL transport buffer was added and incubated for 10 min. The transport buffer contains the following ingredients: 500 mL HBSS (Hank's balanced salt solution, Hyclone, SH30268.01), 5 mL HEPES buffer (4-(2-hydroxyethyl)-1-piperazine-ethanesulfonic acid, Gibco 15630-056) and 3.9 mL glucose (Sigma, G8270-100, 90 g/200mL MilliQ water). All test items were prepared in transport buffer at a final concentration of 100 µM from stock solutions (180 to 500 mM concentration). The OATP1B3 HEK 293 cells were incubated with test solutions (test item in transport buffer 500 µL) for 40min on a thermoshaker without shaking (PHMP, Fa. Grant Bio). Triplicates were performed for each test item. After incubation the cells were washed with 2 mL of cold PBS (+) buffer (Dulbeccos PBS +, Fa. Gibco). […] As a reference standard Gd-EOB-DTPA (gadoxetate) is used in the same well plate. The OATP1B3 HEK 293 uptake of the test compound is calculated relative to gadoxetate (resulting in the unit % of RC1).

[4] = tested on: freshly isolated rat hepatocytes; assay: Uptake into freshly isolated rat hepatocytes; conditions: for Uptake rat hepatocytes: 100 µmol Gd/L, 10 min, 37°C, relative to RC1 (Gd-EOB-DTPA); for Inhibition Rifampicine: rat hepatocyte uptake with OATP1B1/1B3 inhibitor Rifampicine, test item and inhibitor each 100 µM
Experimental: The rat hepatocytes were incubated (2.5 ·10^5 cells/well) for 2.5 to 4h in collagen coated 24-well plates (Fa. Beckton Dickinson Biocoat, cell environments, Collagen I Cellware) in Williams E-medium (Fa. Sigma W1878) in an incubator (37°C, 5% CO2 and 95% oxygen). After incubation the adherent hepatocytes were washed once with 37°C Hepes carbonate transport buffer (500 µL/well). The test items and RC1 were prepared from stock solutions (180 to 500 mM concentration) in Hepes carbonate transport buffer at pH 7.4 to reach a final concentration of 100 µmοl Gd/L. The specific uptake of the test item or RC1 into rat hepatocytes via OATP1 B1 and OATP1 B3 was challenged using a known OATP1B1/1B3 inhibitor (Rifampicine, Fa. Sigma R3501, test item and inhibitor 1:1 each 100 µM final concentration). The prepared rat hepatocyte plates were incubated with test solutions (500 µL/well) at 37°C for 10 min using a thermoshaker (Fa. Grant Bio, PHMP). Triplicates were performed for each test item. After incubating the cells were washed once with cold PBS buffer (Fa. Gibco, Dulbeccos PBS (+)). After washing the intact hepatocytes were lysed by addition of 500 µL cold 0.01 % Triton-X 100 in Millipore water for 1h. […] After 1h 500 µL of 10 nM Terbium ICP-MS standard was added in 2% nitric acid and 0.01% Triton 100 before the Gadolinium concentrations in the lysate were measured using ICP-MS (Agilent 8900, singleQuad, integr. Time 0.3 s, no gas, 5 replicates, Gd m/z 157, Tb m/z 159). As a reference standard RC1 is used in the same well plate. The hepatocyte uptake of the test compound is calculated relative to RC1 (resulting in the unit % of RC1).

Row | Substance | Inhibition Rifampicine (OATP1B3 [1]) [% inhibition] | r1 human plasma [2] [L/mmol/s] | r1 water [2] [L/mmol/s] | Uptake into OATP1B3-HEK 293 cells (OATP1B3 [3]) | Uptake rat hepatocytes [4] | Inhibition Rifampicine [4] [% inhibition]
1 | Gadolinium-2,2',2"-[10-(carboxymethyl)-2-(4-ethoxybenzyl)-1,4,7,10-tetraazacyclododecane-1,4,7-triyl]triacetate [Example 8] | 99 | 6.5 | 4.7 | 94 % of RC1 | 143 % of RC1 | 96
2 | Gadolinium-2,2',2"-[10-(carboxymethyl)-2-(4-ethoxybenzyl)-1,4,7,10-tetraazacyclododecane-1,4,7-triyl]triacetate [Example 9] | 94 | 5.6 | 4.3 | 13 % of RC1 | 42 % of RC1 | 93
3 | Gadolinium-2,2',2"-[(2S)-2-(4-butoxybenzyl)-10-(carboxymethyl)-1,4,7,10-tetraaza cyclododecane-1,4,7-triyl]triacetate [Example 12] | 98 | 8.8 | 4.7 | 66 % of RC1 | 110 % of RC1 | 96
4 | Gadolinium-2,2',2"-[(2S)-2-(4-butoxybenzyl)-10-(carboxymethyl)-1,4,7,10-tetraaza cyclododecane-1,4,7-triyl]triacetate [Example 13] | 98 | 9.8 | 5.3 | 383 % of RC1 | 137 % of RC1 | 86
5 | Gadolinium-2,2',2"-[(2S)-10-(carboxymethyl)-2-(4-ethoxybenzyl)-1,4,7,10-tetraazacyclododecane-1,4,7-triyl]triacetate [Example 10] | 96 | 6.4 | 4.8 | 80 % of RC1 | 104 % of RC1 | 96
6 | Gadolinium-2,2',2"-[(2S)-10-(carboxymethyl)-2-(4-ethoxybenzyl)-1,4,7,10-tetraazacyclododecane-1,4,7-triyl]triacetate [Example 11] | 90 | 6.2 | 4.4 | 32 % of RC1 | 49 % of RC1 | 96
